Data reported in patent publication US4203986A, “M-Trifluoro-methylphenyl-piperazine” (Metabio-Joullie, priority 1977, dated 1980).
Like-named read-outs stand apart in the source and are kept apart here.

Tests used:
[1] = system: coughing by stimulation of the superior larynx nerve; test: Antitussive action in the cat (stimulation of the superior larynx nerve); type: in vivo; details: for effect on coughing in cats (in words): i.v.
Procedure: The cats all thriving, male or female of weight between 1.5 and 2.5 kg (test on 10 cats) are anaesthesised by nembutal at a dose of 30 mg/kg interperitoneally.
A cannula having three branches is placed in the trachea. Two of the branches are connected to a device for registering intratracheal pressure (MERCURY gas pressure gauge connected to an RACIA polygraph) The third branch allows elimination of part of the respiratory volume.
A cannula is placed in the femoral vein for administration of the test substances.
The stimulation parameters are as follows: frequency: 5 cycles per sec, amplitude: 5 millisec, voltage: 4 to 6 volts, duration: 15 to 45 sec. (according to the sensitivity of the animal).
There are carried a minimum of 3 stimulations spaced by 5 minutes and provoking coughing attacks of the same severity. The compound is then administered intravenously. The stimulation is then carried out every 5 minutes. If the compound reduces or suppresses the coughing the stimulation is continued until the reappearance of coughing to approximately the same degree as the initial coughing.
The results are expressed as a percentage reduction in the number of coughs.

[2] = system: coughing induced by aqueous citric acid aerosol; test: Antitussive action in the guinea pig (citric acid aerosol); type: in vivo; details: for antitussive activity (in words): oral
Source text: The technique used is that of SIECKMANN (W.) (in "Notions techniques de Pharmacologie generale" by Michel COLOT, page 75, Masson, Edit, 1972).
The guinea pigs .female. of mean weight 400 g, unanaesthesised, are subjected to the tussigenic effect of aerosols of a 7.5% aqueous citric acid solution. The animals are placed one by one in a cylindrical chamber having at its two extremities two canals, one serving as entrance for the aerosol and the other as its exit.
On the exit tube there is a lateral connection to a MERCURY gas pressure differential gauge joined to an RACIA counter. An adjustable screw clamp placed on the exit tube downstream of the lateral canal permits regulation of the sensitivity of the system such that the normal respiration of the animal only registers very weakly and that displacement of air in the chamber provoked by coughing attack is recorded clearly in the form of vertical traces.
Each guinea pig is first submitted to a control test for 5 minutes. One hour later it receives the test compound. It is replaced in the chamber for 5 minutes, 1 hour after oral administration of the compound.
The number of coughing attacks before and after administration is counted and the percentage inhibition is calculated.

[3] = Acute toxicity in Mice; type: in vivo, mice (SWISS, EOPS, NMRI/Han, female); details: for LD50 at 360 h / MTD at 360 h: mouse, in vivo; for LD50 at 360 h / LD 50: method of KARBER and BEHRENS; for MTD at 360 h: read-out: LD 0 (maximum dose tolerated); for LD 0 (maximum dose tolerated) / LD 50: 21600 min
Procedure: The compounds are administered in increasing doses (in arithmetic progression) to groups of five .female. SWISS, EOPS, NMRI/Han mice of the EVIC CEBA strain and having a mean weight of 22 g.
For intravenous administration the compounds are dissolved in distilled water, for oral administration they are suspended in 10% gum arabic solution (volume administered: 0.5 ml/22 g body weight).
The LD 50's are calculated according to the method of KARBER and BEHRENS (B.) (Arch. Exp. Path. Pharmakol. 1935, 177, 379-388).
For each administration method, there is indicated:
LD 0 or maximum dose tolerated.
LD 100 or minimum lethal dose.
The number of animals surviving in the different groups is definitively verified 15 days after administrating the compounds.

Row | SMILES | LD50 at 360 h ([3]; po, oral administration) [mg/kg] | MTD at 360 h ([3]; po, oral administration) [mg/kg] | LD 100 (minimum lethal dose) ([3]; oral administration) [mg/kg] | LD 100 (minimum lethal dose) ([3]; intravenous administration) [mg/kg] | LD50 at 360 h ([3]; iv, intravenous administration) [mg/kg] | MTD at 360 h ([3]; iv, intravenous administration) [mg/kg] | LD 0 (maximum dose tolerated) ([3]; oral administration) [mg/kg] | LD 50 ([3]; oral administration) [mg/kg] | further results
1 | COc1ccc2c3c1O[C@H]1[C@@H](O)C=C[C@H]4[C@@H](C2)N(C)CC[C@@]341 [Codeine, reference compound] | – | – | – | – | – | – | – | – | % maximum reduction in the number of coughs ([1]; 3.5 mg/kg i.v.): 100%; inhibition in vivo at 35 mg/kg ([2]; Cavia porcellus, po, 1 h, 35 mg/kg p.o., read-out: Percentages of inhibition of coughing): 64%; inhibition in vivo at 70 mg/kg ([2]; Cavia porcellus, po, 1 h, 70 mg/kg p.o., read-out: Percentages of inhibition of coughing): 71%
2 | OCC(O)CN1CCN(c2ccc(F)c(C(F)(F)F)c2)CC1 (stereo not shown) [LJ 1121, 3-[4-(3-Trifluoromethyl-4-fluorophenyl)-piperazino]propane-1,2-diol] | 925 | 500 | 1250 | – | – | – | – | – | –
3 | OCC(O)CN1CCN(c2cccc(C(F)(F)F)c2)CC1 (stereo not shown) [LJ 1142, 3-[4-(m-Trifluoromethylphenyl)-piperazino]-propane-1,2-diol] | 1120 | 750 | 1500 | 300 | 252 | 225 | – | – | –
4 | OC1CCCCC1N1CCN(c2cccc(C(F)(F)F)c2)CC1 (stereo not shown) [LJ 1143, 2-[4-(m-Trifluoromethylphenyl)-piperazino]-cyclohexanol] | 625 | 250 | 1000 | 81 | 69 | 56 | – | – | –
5 | OC(CN1CCN(c2cccc(C(F)(F)F)c2)CC1)CN1CCN(c2cccc(C(F)(F)F)c2)CC1 [LJ 1145, 1,3-bis[4-(m-Trifluoromethylphenyl)-piperazino]-propan-2-ol] | – | – | 1000 | – | – | – | 200 | 580 | inhibition in vivo at 58 mg/kg ([2]; Cavia porcellus, po, 1 h, 58 mg/kg p.o., read-out: Percentages of inhibition of coughing): 58%
6 | OC(CN1CCN(c2cccc(C(F)(F)F)c2)CC1)CN1CCN(c2cccc(C(F)(F)F)c2)CC1 [LJ 1152, 1,3-bis[4-(m-Trifluoromethylphenyl)-piperazino]-propan-2-ol] | – | – | 375 | 50 | 36 | 25 | 125 | 225 | % maximum reduction in the number of coughs ([1]; 3.6 mg/kg i.v.): 76%; % maximum reduction in the number of coughs ([1]; 7.2 mg/kg i.v.): 100%; effect on coughing in cats (in words) [1]: comparable with those of codeine; inhibition in vivo at 22 mg/kg ([2]; Cavia porcellus, po, 1 h, 22 mg/kg p.o., read-out: Percentages of inhibition of coughing): 64%; inhibition in vivo at 72 mg/kg ([2]; Cavia porcellus, po, 1 h, 72 mg/kg p.o., read-out: Percentages of inhibition of coughing): 75%; antitussive activity (in words) [2]: also active if not more active than codeine
7 | OC(CN1CCN(c2cccc(C(F)(F)F)c2)CC1)CN1CCN(c2cccc(C(F)(F)F)c2)CC1 [LJ 1154, 1,3-bis[4-(m-Trifluoromethylphenyl)-piperazino]-propan-2-ol] | – | – | 200 | 44 | – | – | 50 | 135 | LD 0 (maximum dose tolerated) ([3]; intravenous administration): 25 mg/kg; LD 50 ([3]; intravenous administration): 37.5 mg/kg; % maximum reduction in the number of coughs ([1]; 4 mg/kg i.v.): 80%; % maximum reduction in the number of coughs ([1]; 8 mg/kg i.v.): 100%; effect on coughing in cats (in words) [1]: comparable with those of codeine; inhibition in vivo at 6.75 mg/kg ([2]; Cavia porcellus, po, 1 h, 6.75 mg/kg p.o., read-out: Percentages of inhibition of coughing): 66%; inhibition in vivo at 13.5 mg/kg ([2]; Cavia porcellus, po, 1 h, 13.5 mg/kg p.o., read-out: Percentages of inhibition of coughing): 78%; antitussive activity (in words) [2]: also active if not more active than codeine
